These results are taken from US7344884B2, “Peptides promoting cell adherence, growth and secretion” (Becton, Dickinson and Company, priority 2001, dated 2008).

Entries after “also recorded” stand apart in the source; their conditions may differ. Marks after values point to notes of the source that are not given here.

The subject of test [1] is PDGF secretion by CHO cells producing rPDGF (CRL 9359/CRL9360). Description: Sandwich ELISA for PDGF in supernatant of CHO cells cultured with test peptide. The class given is cell-based, Chinese Hamster. The following applies: for effect on PDGF expression/accumulation in CHO cells (result in words): library screening. How it is done:
To identify peptides in a particular library which positively affected cell expression and secretion, each test peptide was added to a well containing a monolayer of chinese hamster ovary cells. The selected cells were anchorage-dependent CHO cells known to secrete platelet derived growth factor, which were initially grown on the tissue culture surfaces using a media with serum. After the monolayer was established, a chemically defined base media and a single test peptide were added to each well. In the present work, secretion of PDGF was assessed in the presence and absence of peptides from the library by collecting supernatant from each well and performing an ELISA specific for PDGF on the supernatant. The output was the absorbance at 492 nm. Secretion was evaluated in a basal medium rich in amino acids, the necessary vitamins, metals, carbon source and concensus CHO culture factors. PDGF levels were compared to known standards spiked into the media used for culture.
CHO cells are the most widely used animal cell lines in the field of biotechnology for the production of therapeutically important pharmaceuticals (Martin et al, REVIEW, J. of Biotechnology. Progress 1998 14, 807-833). The Chinese Hamster Ovary Cell Lines producing rPDGF (CRL 9359/CRL9360) were obtained from the American Type Culture Collection, 12301 Parklawn Drive, Rockville, Md. 20852. The depositor was Amgen Inc. of Thousand Oaks, Calif. Further details about the cell lines and expressed products can be found in U.S. Pat. No. 5,175,255.
Cells were propagated in DMEM/FI2 media with 5% serum at 37° C. between 5-7% CO2. Passages were limited to 5 prior to seeding and PDGF expression was monitored by western blot and ELISA. Cells were routinely seeded at a density of approximately 1×10^4 cells per 20 ml culture media that was placed in a 250 ml canted neck polystyrene tissue culture treated flask (Becton Dickinson). Cells were cultured to confluency and trypsinized to yield cells for seeding.
1A Media was used as a PDGF negative control (pre-culture), to hydrate the 40 ng PDGF standard (pre-culture), to hydrate test peptides (pre-culture) and to normalize all other test and control PDGF results (post-culture). The 1A media was prepared by adding the following components to a 500 ml bottle of DMEM/F12 (GIBCO cat. No. 11330-032): 2.5 ml of a 10 mM NEAA stock (GIBCO Catalog 11140-050); 10 ml of a 200 mM L-glutamine stock (GIBCO Catalog 25030-08); 1 ml of a 50 mg/ml gentamycin sulfate stock (GIBCO Catalog 15750-0601); 150 μl of a 100 μM methotrexate Stock (Sigma Catalog M8407); 0.5 ml of a 7.5 mg/ml insulin Stock (Sigma I-6634); 50 μl of a 1 mg/ml insulin-like growth factor-stock (Long R3 Factor, Sigma Catalog No. I-1271); 2.5 grams of bovine serum albumin (Sigma Catalog No. A-7906); and 0.5 ml of a 7.5 mg/ml holo-transferrin stock (Sigma T-1283).
The CHO model cell lines are adherent cultures that have never been adapted to a serum-free environment. Accordingly, media containing serum was used to seed wells. Two formats, Overlay (O) and Wash (W) were used to introduce media containing test peptides to adhered cells.
In the O-Format, compounds were gently added on top of the seeding media on the second day. In the O-Format, 9360 cells were seeded at 1,000 cells per 96 well in a 125 μl volume of 1A media with 1.5% serum. 1A media (−serum) containing 12 mM of test peptide was overlaid 2 days later for a final peptide concentration of 6 mM and 0.75% serum. Cell culture supernatant was collected from each test environment on day 10 for later PDGF assay.
In the W-Format, compounds were added on day 2 or 3 after the seeding media was removed. In the W-Format, 9359 and 9360 cells were seeded at 6,000 cells per 96 well in a 250 μl volume of DMEM/F12 with 5% serum. Three days later, the seeding media was removed and replaced with 250 μl of 1A media (−serum) containing 6 mM test peptide. Cell culture supernatant was collected on days 5 and 12 for later PDGF assay. […]
On the technique in general: ELISA stands for enzyme-linked immunosorbent assay.

Test [2] has as its system MC3T3 cells. In words: Oxygen biosensor assay of adherence and growth of MC3T3 cells on peptide-coated wells. In kind it is cell-based, murine. The following applies: for impact on MC3T3 growth (result in words): peptide or control adsorbed to surface, compared with uncoated surface or controls. How it is done:
To identify peptides in a particular library which positively affected cell growth in cell culture, the library was screened in a growth assay. The selected cells were anchorage-dependent MC3T3 cells, which were grown on tissue culture surfaces which had been pre-coated with peptides of the present invention. The screening medium used to evaluate peptides in the library was a low serum medium allowing evaluation of peptide effects with low interference from undefined materials present in the medium. In the present work, growth of MC3T3 cells was assessed in the presence and absence of the peptides in the library which were present in the form of a dried film on a tissue culture substrate. Growth was evaluated in a basal medium rich in amino acids and containing the necessary vitamins, metals and simple carbon source. After an appropriate incubation time, growth of each peptide-supplemented culture is compared to growth of the unsupplemented culture. The extent of growth was evaluated using a Becton Dickinson oxygen sensor to detect oxygen consumption by the cells. The cell number in each well containing a particular peptide was then assessed indirectly with a flurometer which measured fluorescence generated from a fluoroescent dye using band-pass filters of 465 nm for excitation and 590 nm for emission.
Briefly, the oxygen biosensor is based upon the fluoroscence of ruthenium dye which is quenched in the presence of oxygen. The dye is immobilized within an inert but highly permeable silicone matrix located at the bottom of microtiter wells. […] (Wodnicka, M., Guarino, R. D., Hemperly, J. J. Temmins, M. R., Stitt, D. and Pitner, J. B. (2000) J. of Biomolecular Screening 5:141-152)
MC3T3-E1 is a clonal line of murine calvaria-derived osteoblast (establishement of a clonal osteogenic Cell Line from Newborn Mouse Calvaria in Jpn J. Oral Biol 23, 899 (1981)).
MC3T3 cells were maintained in αMEM (GIBCO Catalog No: 12561) supplemented with 2% fetal calf serum (FCS, inactivated) and 100 units or μg/ml of penicillin/streptomycin for one month prior to use. Cells were routinely seeded at a density of approximately 1×10^4 cells per 20 ml culture media which was placed in a 250 ml canted neck polystyrene tissue culture treated flask (Becton Dickinson). Cells were cultured until approximately 2×10^6 cells were obtainable from each flask, which were resuspended in 5 ml of αMEM with 2% FCS for a final cell concentration of about 5×10^4 cells per 150 μl for peptide screening.
For determining the biological effects of library peptides and appropriate controls on MC3T3 cells, cells (5×10^4/150 μl) were grown in an 96 well oxygen sensor plate treated as described below:
Peptides for screening were obtained from either a MDL-400 library or an MDL-100 library. Fifty microliters of peptides at a 1 mM stock concentration in phosphate buffered saline were placed in wells of a 96 well oxygen sensor plate and dried in a reverse flow air hood overnight […].
Vitrogen-collagen-I was obtained from Cohesion (Palo Alto, Calif., Catalog No. FXP-019) and fibronectin was obtained from Sigma (Catalog No. F-0895). All other extracellular matrix (ECM) compounds were obtained from Becton Dickinson Labware, (Bedford, Mass.). Polylysine was obtained from Becton Dickinson Labware and RGDSP-rhodamine was from AnaSpec Inc. (San Jose, Calif.). Extracellular matrix components (ECM) or known peptides were used at the following stock concentrations:
Twenty-five microliters of stock concentrations of controls and 25 μl of phosphate buffered saline were placed in wells of a 96 well oxygen sensor plate and dried overnight as described above.
Cells grown on 96 well oxygen sensor plates treated as described above were monitored for growth using a Becton Dickinson oxygen biosensor. Growth was monitored at the following time points: 1 hours, 24 hours, 32 hours, 48 hours and 86 hours. Media was changed every three days. […]

The mark [3] stands for this setting: 6 mM peptide in 1A media, day 12 or sooner, 1A media post-culture value subtracted.

Take “16 (FKLVY; Synthetic peptide selected for biological activity) [Peptide 16]”: the “Normalized Abs at 492 nm (relative PDGF level), MDL-400 Library” value in test [1] (setting [3]) was found to be 1.38. Turning to “19 (FKKKQ; Synthetic peptide selected for biological activity) [Peptide 19]”, the “Normalized Abs at 492 nm (relative PDGF level), MDL-400 Library” value in test [1] (setting [3]) is reported as 0.79. On the same count and under the same terms, the value for “22 (FKKKK; Synthetic peptide selected for biological activity) [Peptide 22]” was 0.59. For the substance “27 (KKPQY; Synthetic peptide selected for biological activity) [Peptide 27]”, the “Normalized Abs at 492 nm (relative PDGF level), MDL-400 Library” value in test [1] (setting [3]) was found to be 0.55. Same read-out and setting: the value for “30 (KNQTY; Synthetic peptide selected for biological activity) [Peptide 30]” was 0.50. “31 (FKKKV; Synthetic peptide selected for biological activity) [Peptide 31]”: the “Normalized Abs at 492 nm (relative PDGF level), MDL-400 Library” value in test [1] (setting [3]) was 0.49. Same read-out and setting: the same measure for “34 (HKNQT; Synthetic peptide selected for biological activity) [Peptide 34]”: 0.42; for “37 (EKKQT; Synthetic peptide selected for biological activity) [Peptide 37]”: 0.38; for “38 (EKKKK; Synthetic peptide selected for biological activity) [Peptide 38]”: 0.37. The same measure, in the same setting: the value for “43 (DGKKT; Synthetic peptide selected for biological activity) [Peptide 43]” was 0.32; that for “44 (KKPTT; Synthetic peptide selected for biological activity) [Peptide 44]” was 0.31; that for “46 (FKKMY; Synthetic peptide selected for biological activity) [Peptide 46]” was 0.28.

For “50 (DFFHK; Synthetic peptide selected for biological activity) [Peptide 50]”, the “Normalized Abs at 492 nm (relative PDGF level), MDL-400 Library” value in test [1] (setting [3]) is given as 0.25. Still for that read-out and setting: the value for “51 (AKKKK; Synthetic peptide selected for biological activity) [Peptide 51]” was 0.25; that for “53 (AHKKK; Synthetic peptide selected for biological activity) [Peptide 53]” was 0.22. The same measure, in the same setting: the value for “56 (AKKKT; Synthetic peptide selected for biological activity) [Peptide 56]” was 0.20; that for “58 (HNPPY; Synthetic peptide selected for biological activity) [Peptide 58]” was 0.58; that for “60 (AADEG; Synthetic peptide selected for biological activity) [Peptide 60]” was 0.45. The same measure, in the same setting: the value for “63 (HHPST; Synthetic peptide selected for biological activity) [Peptide 63]” was 0.33; that for “65 (ADELN; Synthetic peptide selected for biological activity) [Peptide 65]” was 0.23; that for “AFFFQ (Synthetic peptide selected for biological activity) [SEQ ID NO:12]” was 0.43. With “EEEMY (Synthetic peptide selected for biological activity) [SEQ ID NO:13]”, in test [1] (setting [3]), the “Normalized Abs at 492 nm (relative PDGF level), Follow-Up Library” value came out at 1.37. For “FKFIG (Synthetic peptide selected for biological activity) [SEQ ID NO:5]”, the “Abs at 590 nm (relative oxygen consumption), MDL-400 Library” value in test [2] (86 hour time point, single peptide, 50 µl of 1 mM stock dried in well, value normalized to the well's initial reading) was 2.27*. In addition, the “impact on MC3T3 growth (result in words)” value is listed as “positive; also recorded: significant difference in growth” in test [2] and “positive” in test [2] (listed as FKFIG). The “effect on PDGF expression/accumulation in CHO cells (result in words)” value in test [1] is reported as “positive”. Turning to “KFIFG (Synthetic peptide selected for biological activity) [SEQ ID NO:45]”, the “effect on PDGF expression/accumulation in CHO cells (result in words)” value in test [1] was “positive”.
